{"source": "patent US4912092A", "about": "“Methods for increasing extracellular adenosine and for stabilizing mast cells” (The Regents of the University of California, priority 1987, dated 1990)", "key": {"[1]": {"system": "isuprel-induced arrhythmias", "assay": "Isoproterenol (isuprel)-induced arrhythmias", "assay_type": "in vivo, rat", "settings": "1000 mg/kg intraperitoneally", "protocol": "Five minutes later both animals were anesthetized with 330 mg/kg of chloral hydrate injected intraperitoneally. Then a single EKG lead was attached to each rat for simultaneous recording of the paired rats' electrocardiograms. To produce arrhythmia, each rat was injected subcutaneously with isuprel […].\nBeginning 30 minutes after isuprel introduction, the electrocardiograph recording paper speed was run (5 cm/sec) for 10 minutes to count the arrhythmic beats of both animals."}, "[2]": {"system": "HPRT+ neuroblastoma cells", "assay": "Adenosine excretion by ionophore-stimulated HPRT+ neuroblastoma cells", "assay_type": "cell-based", "settings": "for Concentration of Adenosine: HPRT+, AICA riboside 50 μM", "protocol": "(§1) The history and properties of the cell line have been described by Hershfield et al. in Science, Vol. 197, p. 1284, 1977.\n(§2) Catabolism of cellular ATP stores was stimulated by adding either 2-deoxyglucose or a calcium ionophore. At various times, the amount of adenosine released by the cells into the supernatant, or the amount of nucleotides remaining in the cells, was determined by mixing 30 μl of chilled 4.4N perchloric acid with 300 μl of supernatants, or by adding 300 μl of chilled 0.4N perchloric acid to the cells collected as pellets and centrifuging the mixtures at 500×G for 10 minutes at 4° C. […] 1245, 1975. Following centrifugation at 1500×G for three minutes at 4° C., the aqueous phase is removed and frozen at -20° C. until assayed for adenosine, inosine, or for nucleotides. Adenosine was evaluated isocratically on a C-18 microBondapak reverse phase column equilibrated with 4 millimolar potassium phosphate, (pH 3.4):acetonitrile 60% in water (95:5 v/v) buffer. Adenosine elutes at 8-10 minutes, and its identity was confirmed by its sensitivity to adenosine deaminase and by spiking with adenosine standards. The extracted samples from the cell pellet were analyzed for nucleotides by high pressure liquid chromatography on a Whatman Partisil-10 (SAX) column equilibrated with 10 millimolar potassium phosphate, pH 3.78, and eluted with a linear gradient to a 0.25 molar potassium phosphate, 0.5 molar KCl, pH 3.45. […] Peaks were quantitated by comparison with high pressure liquid chromatography analysis of suitable standards.\n(§3) To induce ATP catabolism, the growth medium was replaced by medium containing micromolar amounts of the calcium ionophore A23187 and 1.0 μM deoxycoformycin."}, "[3]": {"system": "ischemic myocardium", "assay": "Regional myocardial blood flow during coronary artery occlusion (radiolabelled microspheres)", "assay_type": "in vivo, dog", "description": "FIG. 4. […] The means plus the standard deviations are graphed. […] Thirteen mongrel dogs were anesthetized with phenobarbital. […] C.V. Dis. 20; 55 (1977)."}, "[4]": {"system": "Mouse bone marrow-derived mast cells", "assay": "Mast cell leukotriene C4 release (radioimmune assay)", "assay_type": "cell-based", "protocol": "By preventing mast cell degranulation, it is possible to prevent or control a patient's allergic response. Bone marrow obtained from Balb/C mice femurs was cultured in a 1:1 mixture of Razin media and conditioned media, produced by co-culturing splenocytes from C57B1/6J and C3H mice in the presence of Concanavalin A as described by Razin et al. in the Proc. Natl. Acad. Sci. USA 28: 2559-2561, 1981. After weekly passaging and at least 15 days in tissue culture, the resulting cells were 90% pure mast cells and 95% viable as assessed by Trypan blue exclusion. Cells exposed to ribavirin in culture were washed three times prior to use in experiments. Parallel cultures of cells grown in media alone were used as controls for pharmacologically manipulated mast cells. Cell growth was assessed by counting cells at particular time points and comparing actual numbers of ribavirin-treated cells to numbers of cells grown in media alone."}, "[5]": {"system": "adenylosuccinase deficiency (autism)", "assay": "Therapeutic trial in patients with adenylosuccinase deficiency (autism)", "assay_type": "in vivo, human", "description": "(§4) Following authorization, therapeutic trials with AICA riboside were started in two patients with adenylosuccinase deficiency (autism). […] On Day 55, both patients were briefly readmitted for clinical, biochemical and psychiatric evaluation. […] Treatment was maintained until Day 71, and arrested at that date."}, "[6]": {"system": "pentylene tetrazol-induced seizures", "assay": "Pentylene tetrazol-induced seizures", "assay_type": "in vivo, rat"}, "[7]": {"assay": "Plasma, CSF, erythrocyte and urine measurements in the patient trial", "assay_type": "in vivo, human", "description": "as §4\nA correct assessment of the renal loss of the nucleoside could not be obtained."}, "[8]": {"settings": "dog, in vivo"}, "[9]": {"system": "adenosine", "assay": "Coronary venous adenosine concentrations during coronary artery occlusion in dogs", "assay_type": "in vivo, dog", "protocol": "FIG. 3. […] Coronary venous blood was collected into chilled 2N perchloric acid at various times before and after coronary artery occlusion. Supernatants from these extracts were neutralized with alamine and freon and evaluated by high performance liquid chromotography.\n(§5) Thirteen mongrel dogs were anesthetized with phenobarbital. […] C.V. Dis. 20; 55 (1977). […] Two of the surviving saline-treated animals fibrillated. […] The range was 4.4 to 100 μM."}, "[10]": {"system": "inosine", "assay": "Venous inosine levels during coronary artery occlusion in dogs", "assay_type": "in vivo, dog", "settings": "over the 60-minute assay period (FIG. 5)", "protocol": "as §5\nThat the increase in the levels of adenosine is due, at least in part, to a reduction in the amount of ATP that is converted to inosine was shown by analysis of venous blood from dogs in Example III for inosine levels."}, "[11]": {"system": "human splenic lymphoblast cell line (WI-L2)", "assay": "Adenosine excretion by human lymphoblasts during ATP breakdown (2-deoxyglucose)", "assay_type": "cell-based", "protocol": "as §1, §2\nCells were grown to about 0.5×10^6 cells/ml (mid-log phase) in FIG. 2 and to about 1.0×10^6 cells/ml (early stationary phase) in FIGS. 7-9."}, "[12]": {"system": "HPRT- neuroblastoma cells", "assay": "Adenosine excretion by ionophore-stimulated HPRT- neuroblastoma cells", "assay_type": "cell-based", "settings": "for Concentration of Adenosine: HPRT-, AICA riboside 50 μM", "protocol": "as §1, §2, §3"}, "[13]": {"settings": "after two months of continuous administration"}, "[14]": {"settings": "one hour after intravenous administration"}}, "note": "“Also recorded” adds a separate entry of the source.", "data": [{"compound": "NC(=O)c1ncn([C@@H]2O[C@H](CO)[C@@H](O)[C@H]2O)c1N", "note": "[AICA riboside, 5-amino-4-imidazolecarboxamide riboside]", "values": [{"measurement": "reduction in paroxysmal ventricular contractions", "setting": "[1]", "value": 39, "unit": "%"}, {"measurement": "ventricular fibrillation", "setting": "[1]", "value": "complete suppression"}, {"measurement": "adenosine secreted by treated cells versus control cells", "setting": "[2]; 50 μM AICA riboside, A23187 and 1.0 μM deoxycoformycin", "value": "at least twofold more adenosine than control cells"}, {"measurement": "Concentration of Adenosine", "setting": "[2]; ionophore 0 μg/ml", "value": "< 0.01", "unit": "µM"}, {"measurement": "Concentration of Adenosine", "setting": "[2]; ionophore 10 μg/ml, control 0.329", "value": 0.698, "unit": "µM"}, {"measurement": "regional myocardial blood flow to the ischemic myocardium versus saline", "setting": "[3]; 5 and 60 minutes of occlusion", "value": "significantly greater"}, {"measurement": "flow to normal (non-ischemic) myocardium", "setting": "[3]; dog, in vivo", "value": "did not alter flow to normal myocardium"}, {"measurement": "collateral blood flow versus saline (radiolabelled microspheres)", "setting": "[3]; dogs of Example IX", "value": "significantly greater"}, {"measurement": "supernatant leukotriene C4 concentration", "setting": "[4]; 100 μM for six days, A23187 challenge 20 minutes, control 51", "value": 13, "unit": "nanograms/10^6 cells"}, {"measurement": "inhibition at 100 µM", "setting": "[4]; Mus musculus, Mast cell, 100 μM pretreatment for six days, p<0.01, read-out: reduction of leukotriene C4 release", "value": 75, "unit": "%"}, {"measurement": "autistic features, older patient", "setting": "[5]; [13]", "value": "did not show any modification"}, {"measurement": "autistic features, younger sibling", "setting": "[5]; [13]", "value": "clear-cut improvement"}, {"measurement": "haematology and clinical chemistry parameters", "setting": "[5]; before and during the trial treatment", "value": "normal"}, {"measurement": "parent's description of both patients", "setting": "[5]; during therapy", "value": "more pleasantly active and more easy to handle during therapy"}, {"measurement": "clinical or biochemical side effects", "setting": "[5]; oral 5 mg/kg/day up to 2×10 mg/kg/day", "value": "no adverse effects; also recorded: No clinical or biochemical side effects were observed"}, {"measurement": "latency to seizure", "setting": "[6]; 2000 mg/kg (total dose) intraperitoneal (FIG. 12)", "value": "dramatic prolongation"}, {"measurement": "reduction of animals having seizures", "setting": "[6]; 2000 mg/kg (total dose) intraperitoneal, 60 mg/kg pentylene tetrazol", "value": 40, "unit": "%"}, {"measurement": "AICA riboside in plasma and CSF", "setting": "[7]; all dosages used, oral 5 to 2×10 mg/kg/day and intravenous 20 mg/kg/day", "value": "could not be detected"}, {"measurement": "AICA riboside in plasma", "setting": "[7]; [14]", "value": "undetectable in plasma"}, {"measurement": "AICA riboside triphosphate in the erythrocytes", "setting": "[7]; [14]", "value": "had similarly accumulated in the erythrocytes"}, {"measurement": "concentrations of AICA riboside triphosphate reached in erythrocytes", "setting": "[7]; oral as well as intravenous administration", "value": "of the same magnitude as those of GTP"}, {"measurement": "arterial blood gas-content and systemic venous granulocyte counts versus saline", "setting": "[8]", "value": "not significantly different"}, {"measurement": "systemic arterial pressure and heart rate versus saline", "setting": "[8]", "value": "no significant differences"}, {"measurement": "adenosine washout on reperfusion", "setting": "[9]; 1 minute after reperfusion", "value": "significant rise"}, {"measurement": "peak adenosine level, coronary venous blood", "setting": "[9]; 1 minute of ischemia, saline peak 0.22 +/-0.08 at 10 minutes", "value": "1.79 ± 0.35", "unit": "µM"}, {"measurement": "adenosine level, coronary venous blood", "setting": "[9]; 60 minutes of ischemia, saline undetectable", "value": "0.18 ± 0.15", "unit": "µM"}, {"measurement": "venous adenosine prior to ischemia", "setting": "[9]; before and during infusion", "value": "< 0.01", "unit": "µM"}, {"measurement": "adenosine in blood from the right atrium (systemic blood)", "setting": "[9]; dog, in vivo", "value": "no detectable adenosine"}, {"measurement": "inosine levels in venous blood versus saline", "setting": "[10]", "value": "more than twofold decrease"}, {"measurement": "adenosine release from lymphoblasts", "setting": "[11]; 48-hour pretreatment, 100-500 micromolar (FIG. 2)", "value": "enhances adenosine release"}, {"measurement": "adenosine excreted", "setting": "[11]; 48-hour pretreatment, 500 micromolar AICA riboside, about 1.4 without drug", "value": "about 2.3 nanomoles of adenosine/10^6 WI-L2 cells"}, {"measurement": "adenosine release from lymphoblasts", "setting": "[11]; 18 hours preincubation before 2-deoxyglucose exposure (FIG. 7)", "value": "enhanced adenosine release"}, {"measurement": "adenosine release from lymphoblasts", "setting": "[11]; three-hour preincubation and four-hour incubation during 2-deoxyglucose treatment (FIGS. 8, 9)", "value": "increased adenosine release"}, {"measurement": "Concentration of Adenosine", "setting": "[12]; ionophore 0 μg/ml", "value": "< 0.01", "unit": "µM"}, {"measurement": "Concentration of Adenosine", "setting": "[12]; ionophore 10 μg/ml, control 0.124", "value": 0.513, "unit": "µM"}, {"measurement": "correction of the twofold lower adenosine secretion of HPRT-deficient cells", "setting": "[12]; pretreatment", "value": "can be corrected by pretreatment"}]}]}
